These results are taken from patent US20250154288A1, “CYTOTOXICITY TARGETING CHIMERAS FOR C-C CHEMOKINE RECEPTOR 2-EXPRESSING CELLS” (GLAXOSMITHKLINE INTELLECTUAL PROPERTY DEVELOPMENT LIMITED, priority 2022, published 2025).

Counter-ions that a name gives are not always drawn.

In assay [1] the target is human alpha1 nicotinic acetylcholine (nACh) receptor (Homo sapiens, UniProt P02708+Q07001). As to the kind of experiment: Nicotinic Acetylcholine Receptor Antagonism Assay (IONFlux automated patch clamp). The format is cell-based. In outline:
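Human α1 nAChR-expressing cells were exposed to compound in dose response (top concentration 10 μM or 100 μM), then stimulated with 10 mM ACh. Peak currents were recorded by IONFlux automated patch clamp. Inhibition versus ACh alone was vehicle- and run-down-corrected and fit nonlinearly for IC50, with recordings below 500 pA control current excluded.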
(In general: Patch clamp records ionic current or voltage across a cell membrane.)

Assay [2] deals with Anti-cotinine antibody (SEQ ID NO: 11 / SEQ ID NO: 12). As to the kind of experiment: Binding of Anti-Cotinine Antibody to ARM Compounds measured by Surface Plasmon Resonance (SPR). On the set-up: species or system rabbit variable region with human IgG1 Fc domain. As to conditions: Biacore T200, 37° C., Kd = koff/kon, average if several runs. The protocol: Anti-cotinine antibodies having a heavy chain sequence of SEQ ID NO: 11 and a light chain sequence of SEQ ID NO: 12 (rabbit variable region with human IgG1 Fc domain containing a DE mutation (S239D/I332E)) were captured on one or more flow cells of a protein A sensor chip (Cytiva) using a Biacore T200 while reserving flow cell 1 as a reference. Following capture, a 3000 second wait step was included to reduce drift during compound analysis. ARM compounds of Formula (I) were then injected at 100 μL/min with 200 and 2000 second association and dissociation times. The entire experiment was run at 37° C. with running buffer containing 10 mM HEPES pH 7.4, 150 mM NaCl, 0.005% P20 and 1% DMSO. ARM compounds of Formula (I) were titrated with a top concentration of 200 nM using a 3-fold 5-point dilution series and a corresponding 5-injection buffer cycle was run for blank subtraction. Data were double referenced by subtracting the response of the reference flow cell from that of the antibody-containing flow cell and subsequently subtracting the referenced blank sensorgrams. Following compound analysis, the surface was regenerated using a 30 second injection of pH 1.5 glycine at a flow rate of 30 μL/min after which antibody was re-captured. The experiment was run using Biacore T200 control software and evaluated using Biacore T200 Evaluation software. Curves were fit with a 1:1 kinetic binding model to obtain kon(1/Ms), koff(1/s), Kd (M) determined as koff/kon, and residence time determined as 1/koff. (s).
Anti-cotinine antibody was tested for binding to ARMs compounds of Formula (I) of the invention in the above assay in or more experimental runs and the results are shown in Table 5 below. Affinity is reported as a pKd value. The pKd value is the negative log of the Kd value, wherein the Kd value is the dissociation constant measured in molar (M) as noted above. For compounds tested in more than one experimental run, the pKd value is reported as an average
Background: In SPR one partner is held on a chip, and binding of the other changes the refractive index at the surface.

Assay [3] concerns the target T1, CHOK1 cells engineered to overexpress human CCR2 (Homo sapiens, UniProt P41597).
T1 construct: expressed in transfected cells; host or cells: CHOK1
The assay is described as follows: Antibody Dependent Cellular Cytotoxicity (ADCC) Reporter Assay. It is filed as cell-based. The settings on record: with anti-cotinine antibody (human IgG1 Fc, S239D/I332E); Jurkat FcγRIIIa NFAT-luciferase reporter cells; average if several runs; read-out: ADCC Reporter Assay pEC50 (converted). The gist of the method: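 CHOK1-hCCR2 target cells co-incubated ~12-18 h with compound (1 pM–10 μM), anti-cotinine rabbit/human IgG1 S239D/I332E antibody (0.01–200 μg/mL) and Jurkat FcγRIIIa NFAT-luciferase reporter cells. Luminescence signal:background versus no-compound wells; EC50 from four-parameter fit, reported as pEC50, averaged over runs.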

human alpha1 nicotinic acetylcholine (nACh) receptor, sequence (P02708 21-457): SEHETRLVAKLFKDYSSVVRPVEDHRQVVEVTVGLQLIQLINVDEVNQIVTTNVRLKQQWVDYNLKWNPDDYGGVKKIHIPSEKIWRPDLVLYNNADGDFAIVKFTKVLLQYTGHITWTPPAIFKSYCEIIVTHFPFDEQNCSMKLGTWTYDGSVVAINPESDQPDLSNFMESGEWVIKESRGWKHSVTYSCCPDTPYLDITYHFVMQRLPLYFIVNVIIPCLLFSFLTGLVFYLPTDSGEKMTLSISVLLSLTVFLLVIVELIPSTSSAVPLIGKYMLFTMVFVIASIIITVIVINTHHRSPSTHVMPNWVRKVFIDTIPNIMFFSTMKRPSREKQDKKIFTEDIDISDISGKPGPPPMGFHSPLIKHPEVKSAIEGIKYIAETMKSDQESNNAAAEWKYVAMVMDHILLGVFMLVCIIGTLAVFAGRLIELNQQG
human alpha1 nicotinic acetylcholine (nACh) receptor, sequence (P11230 24-501 partner): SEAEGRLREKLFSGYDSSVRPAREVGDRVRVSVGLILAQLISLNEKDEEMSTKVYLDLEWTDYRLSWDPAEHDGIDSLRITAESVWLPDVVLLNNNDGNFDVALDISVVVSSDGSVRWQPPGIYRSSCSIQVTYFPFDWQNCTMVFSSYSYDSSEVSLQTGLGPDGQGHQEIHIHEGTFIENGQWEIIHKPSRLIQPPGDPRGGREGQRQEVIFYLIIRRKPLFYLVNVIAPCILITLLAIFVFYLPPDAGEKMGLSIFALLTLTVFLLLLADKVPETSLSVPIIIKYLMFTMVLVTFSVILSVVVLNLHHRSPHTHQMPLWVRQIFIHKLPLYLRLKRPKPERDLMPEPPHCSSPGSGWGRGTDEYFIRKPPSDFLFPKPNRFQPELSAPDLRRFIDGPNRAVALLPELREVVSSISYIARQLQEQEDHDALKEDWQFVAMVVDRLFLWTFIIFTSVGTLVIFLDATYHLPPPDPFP
human alpha1 nicotinic acetylcholine (nACh) receptor, sequence (Q07001 22-517): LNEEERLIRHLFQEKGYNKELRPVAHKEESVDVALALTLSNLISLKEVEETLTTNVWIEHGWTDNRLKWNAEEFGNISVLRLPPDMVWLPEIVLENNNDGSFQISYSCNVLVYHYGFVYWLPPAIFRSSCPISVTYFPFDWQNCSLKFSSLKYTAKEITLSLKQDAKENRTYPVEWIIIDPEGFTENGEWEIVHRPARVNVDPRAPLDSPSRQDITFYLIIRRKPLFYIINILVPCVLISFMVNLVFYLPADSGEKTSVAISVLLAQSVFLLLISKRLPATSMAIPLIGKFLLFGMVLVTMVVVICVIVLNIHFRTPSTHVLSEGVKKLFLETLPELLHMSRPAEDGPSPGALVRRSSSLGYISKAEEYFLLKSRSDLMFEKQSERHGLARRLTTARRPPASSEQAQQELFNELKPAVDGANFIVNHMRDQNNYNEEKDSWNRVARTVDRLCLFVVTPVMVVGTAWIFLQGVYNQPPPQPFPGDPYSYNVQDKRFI

The IC50 is the midpoint of a concentration-inhibition curve. Low readings indicate greater potency, high ones weaker potency. The compound `CO[C@@H]1COCC[C@@H]1N[C@@H]1CC[C@@](C(=O)N2Cc3cc(C(F)(F)F)cnc3[C@H](NC(=O)[C@H]3CC[C@H](NC(=O)CCCO[C@H]4CC[C@H](OCCNC(=O)[C@H]5CC(=O)N(C)[C@@H]5c5cccnc5)CC4)CC3)C2)(C(C)C)C1` [Example 14, (2S,3S)-N-(2-(((1R,4S)-4-(4-(((1R,4R)-4-(((R)-6-((1S,3R)-1-isopropyl-3-(((3S,4S)-3-methoxytetrahydro-2H-pyran-4-yl)amino)cyclopentane-1-carbonyl)-3-(trifluoromethyl)-5,6,7,8-tetrahydro-1,6-naphthyridin-8-yl)carbamoyl)cyclohexyl)amino)-4-oxobutoxy)cyclohexyl)oxy)ethyl)-1-methyl-5-oxo-2-(pyridin-3-yl)pyrrolidine-3-carboxamide, 3Formic acid salt] showed a half-maximal inhibitory concentration (IC50) in assay [1] (antagonism of nAChR stimulated with acetylcholine, average if several runs) above 100 µM. The Emax at 100 µM in assay [1] (maximum percentage antagonism at Maximum Concentration of Compound Tested 100 μM, read-out: Maximum Response (%)) was found to be 38%. Moreover, in assay [2], the “pKd of Antibody for ARM Compound of Formula (I)” value is listed as 9.0. Further, the EC50 in assay [3] is below 2 pM.
